# Test results published in US20250255850A1, “PHARMACEUTICAL COMPOSITIONS FOR TREATING NEUROLOGICAL CONDITIONS” (YISSUM RESEARCH DEVELOPMENT COMPANY OF THE HEBREW …, priority 2021, published 2025).
# Assays:
# [1] = test system: SHANK3 mutant mice; assay: Three-chamber sociability test, SHANK3 mutant mice; format: in vivo, mouse
# Method: Three-chambered sociability test (see, FIG. 4B): Sociability and preference for social novelty and social recognition were tested in a three-chambered apparatus. The subjected mouse was first placed in the central, neutral chamber and allowed to explore for 10 minutes with all the doors closed. Next, doors were opened and the mouse was allowed to freely explore the other two empty chambers (1 and 2) for an additional 10 minutes. Lack of side preference was confirmed during this habituation.
# Two cylindrical wire cages were placed, one in chamber 1 and the other in chamber 2. For the sociability test, the test animal was introduced to the middle chamber and allowed to adjust for 5 minutes. Then, an unfamiliar mouse was introduced into a wire cage in one of the side-chambers, and the other side-chamber remained empty. The time spent by the test mouse exploring the wire cage with an unfamiliar mouse inside was recorded for 5 minutes.
# Next, to examine social memory, novel mice is introduced to the empty cage and the tested mice is examined whether they are interested in the novel mice compared to the familiar.
# (§1) A dose dependent study was conducted to determine the optimal dose that may produce the greatest effect on mice behavior. The SHANK3 mutant mice (n=5 for each group) were treated with the 7-NI (i.p) at doses of 0, 20, 50, and 80 mg/kg. This was followed by a set of behavioral tests to assess the proper dose of 7-NI that can reverse the autistic phenotypes observed in this model.
# A three-chamber sociability test was conducted to evaluate the interest of mice in engaging in social interaction with a stranger mouse, as described hereinabove and shown in FIG. 4B. […] Comparing to the 50 mg/kg, although statistically the difference is not significant, the 80 mg/kg-treated group spent more time interacting with the stranger mouse.
# A 100 μL injection of the poly(sebacic acid-ricinoleic acid) (PSARA) gel formulation with 7NI was used to evaluate its effect in reversing ASD-like behaviors in SHANK3 mice. […]
# [2] = test system: 3-nitrotyrosine; assay: Confocal microscopy of 3-nitrotyrosine in cortical neurons, SHANK3 model mice; format: in vivo, mouse; conditions: cortical region, compared to neurons of untreated mice
# Method: FIGS. 3G-H present confocal microscopy images (FIG. 3G) and a quantitative bar graph (FIG. 3H) showing nitro-tyrosine in the cortical region of neurons of wild-type mice (WT), SHANK3 model mice (M1) and SHANK3 model mice treated with 7-NI (M1+7-NI).
# 3-nitrotyrosine levels in were also evaluated by confocal microscopy of the cortical region in neurons of the tested mice, and the obtained data is presented in FIGS. 3G and 3H.
# [3] = test system: SHANK3 mutant mice; assay: Open field test, SHANK3 mutant mice; format: in vivo, mouse; conditions: 7-NI i.p. 20, 50 and 80 mg/kg
# Method: Open field test: Mice were tested in an open field (45×45 cm) virtually divided into central and peripheral regions. Animal activity was recorded by video tracking (Noldus Ethovision). Each mouse was allowed to explore the apparatus for 5 minutes. The distance traveled, the number of rears and revolutions, the number of grooming bouts and cumulative grooming time, the number of head shaking or twitches, the number of entries in the center, and the time spent in the central and peripheral regions were recorded. Measures were recorded in 5-minute intervals.
# as §1
# Initially, an open field test was performed to examine the general motor activity levels in mice that is measured by the distance travelled and velocity.
# A 100 μL injection of the poly(sebacic acid-ricinoleic acid) (PSARA) gel formulation with 7NI was used to evaluate its effect in reversing ASD-like behaviors in SHANK3 mice. The motor activity, social interaction, anxiety and interest behaviors were examined using the behavior analyses as described herein.
# [4] = test system: SH-SY5Y cells; assay: Western blot of 3-nitrotyrosine, mTOR signaling pathway components and synaptophysin; format: cell-based, human
# Method: Human NB SH-SY5Y cells were obtained from the American Type Culture Collection (ATCC) and maintained in Dulbecco's modified Eagle's medium (DMEM) and Ham's F-12 (1:1) supplemented with 10% fetal bovine serum, 2 mM L-glutamine, and 100 U/ml penicillin-G/100 […] streptomycin in a humidified atmosphere (37° C., 5% CO2). Cells were plated onto 25 cm^2 and 75 cm^2 plates at a density of 7.0×10^5 and 2.1×10^6 cells/cm^2 respectively for Western blotting (WB) and 1×10^5 for immunofluorescence. The SH-SY5Y cells were treated with 100 μM 7-nitroindazole (7-NI) for 24 hours (Fujibayashi et al., 2015). This concentration was confirmed in a dose-response experiment (FIG. 14A) using an MTT viability assay.
# SH-SY5Y cells were plated in 6 well plates, as well as on 22 mm^2 coverslips at a density of 6.0×10^4 cells/cm^2 and transfected with 20 nM nNOS siRNA (NOSIHSS1072, Invitrogen) for 24 hours, with the use of Lipofectamine RNAi MAX (56530, Invitrogen) according to the manufacturer's protocol. Then cells were washed with phosphate-buffered saline (PBS) and harvested for WB and fixed for immunofluorescence (Fujibayashi et al., 2015).
# Cells were lysed in ice-cold RIPA buffer containing 50 mM Tris-HCl, 1% Nonidet P-40, 0.25% sodium deoxycholate, 150 mM NaCl, protease-, and phosphatase inhibitor cocktails, pH 7.4. After sonication, the lysates were centrifuged at 17,000 g for 30 minutes at 4° C., and the supernatant was collected. The protein concentrations were determined with the BCA protein assay. Proteins were resolved by SDS-PAGE, transferred to a PVDF membrane, and probed with the following antibodies: anti-pMTOR (rabbit, diluted 1:1000), anti-mTOR (rabbit, diluted 1:1000), anti-TSC2 (rabbit, diluted 1:1000), anti-nNOS (rabbit, diled 1:1000), anti-pAKT (rabbit, diluted 1:1000), anti-AKT (rabbit, diluted 1:1000), anti-pRPS6 (rabbit, diluted 1:1000), anti-RPS6 (mouse, diluted 1:1000), anti-synaptophysin (mouse, diluted 1:1000), anti-β-actin (rabbit, diluted 1:1000), anti-3-Nitrotyrosine (rabbit, diluted 1:5000) from Abcam. All primary antibodies, except anti-3-Nitrosine, were purchased from Cell Signaling Technology. The blots were then visualized using an enhanced chemiluminescence (ECL) system (Choi et al., 2018).
# [5] = 7-NI 100 μM 24 hours or nNOS silencing
smiles,measurement,setting,value
"O=[N+]([O-])c1cccc2cn[nH]c12 [7-NI, 7-nitroindazole]",time interacting with the stranger mouse (first session),[1]; 7-NI 80 mg/kg compared to 20 mg/kg,spent significantly more time interacting with the stranger mouse
same,time interacting with the novel mouse (S2) (second session),[1]; 7-NI 80 mg/kg compared to lower doses,spent more time interacting with the novel mouse (S2)
same,dose yielding the greatest reversal of the autistic phenotypes,"[1]; doses 0, 20, 50, 80 mg/kg i.p.",80 mg/kg
same,reduction of 3-nitrotyrosine levels in the neurons,[2],about 50%
same,"motor activity (distance travelled and velocity, open field)",[3],no significant difference in the motor activity
same,"levels of synaptophysin (Syp, Western blot)",[4]; 7-NI 100 μM 24 hours or genetic ablation of nNOS,significantly decreased the levels of synaptophysin
same,3-Ntyr levels (Western blot),[4]; 7-NI 100 μM 24 hours or nNOS knockdown,halved
same,levels of TSC-2 (Western blot),[4]; [5],significant increase in the levels of TSC-2
same,phosphorylation of RPS6 (Western blot),[4]; [5],reduced
same,phosphorylation of mTOR (Western blot),[4]; [5],decrease in phosphorylation of mTOR
same,phosphorylation of protein kinase-B (AKT) (Western blot),[4]; [5],reduced
